system: healthy mice; test: Oral glucose tolerance test; format: in vivo; settings: 10 mg kg^−1 d^−1 oral for 10 d, 1 h after sugar load
Method: In vivo experiments, glucose tolerance test, insulin tolerance test, cell survival experiment and acute toxicity were used as the test indicators (Tables 2, [3] and [4]). In Table 2, we chose dose 10 mg kg^−1 d^−1 and used oral administration. […] The mice were given the drug for 10 d, blood was collected from the tail vein of the mice before and after the sugar load for 1 h and 2 h, and the blood glucose level of the mice before and after the sugar load was measured by the glucometer.
(§1) (1) Glucose tolerance test: The healthy mice (20 ± 2 g) were selected. After 1 week of acclimation, mice with no body surface damage, good general condition and flexible reaction were selected for the experiment. The test compounds were dissolved with DMSO, and were given a dose volume of 0.2 ml 10 g^−1, and a dose of 10 mg kg^−1, and given by gavage (oral) once a day. […] The mice were given the drug for 10 d, and after the last dose, the mice fasted for 12 h. The next day, blood was collected from the tail vein of the mice before and after the sugar load for 1 h and 2 h, and the blood glucose level of the mice before and after the sugar load was measured by the glucometer. […] The 12 h of fasting after the last administration, blood was taken from the orbital venous plexus (used to measure the blood glucose level after fasting). Each group was immediately given a subcutaneous injection of 0.2 μg kg^−1 of insulin. After 1 h and 2 h of injection, blood was taken again. (3) Cell survival experiment: The HUVEC cells were inoculated on the 96-well plate at the initial concentration of 3 × 10^3 cells/holes, and 100 μl RPMI 1640 medium were added to each hole. At 5% CO2 and 37 °C cell cultivation in 24 h, every pore solution in different concentrations. […] And determine the hole under 460 nm wavelength absorbance value (A).

SMILES | Blood glucose levels 1 h
Cc1ccc(C(=O)NCCOc2ccc(CC3SC(=O)NC3=O)cc2)cc1 (stereo not drawn) [Compound 6e, N-(2-(4-((2,4-dioxothiazolidin-5-yl)methyl)phenoxy)ethyl)-4-methylbenzamide] | 6.003 ± 1.876 mmol/L
O=C1NC(=O)C(Cc2ccc(OCCNC(=O)c3ccc(O)cc3)cc2)S1 (stereo not drawn) [Compound 6i, N-(2-(4-((2,4-dioxothiazolidin-5-yl)methyl)phenoxy)ethyl)-4-hydroxybenzamide] | 6.401 ± 2.112 mmol/L

same assay, conditions: 10 mg kg^−1 d^−1 oral for 10 d, 2 h after sugar load

SMILES | Blood glucose levels 2 h
Cc1ccc(C(=O)NCCOc2ccc(CC3SC(=O)NC3=O)cc2)cc1 (stereo not drawn) [Compound 6e, N-(2-(4-((2,4-dioxothiazolidin-5-yl)methyl)phenoxy)ethyl)-4-methylbenzamide] | 2.953 ± 0.876 mmol/L
O=C1NC(=O)C(Cc2ccc(OCCNC(=O)c3ccc(O)cc3)cc2)S1 (stereo not drawn) [Compound 6i, N-(2-(4-((2,4-dioxothiazolidin-5-yl)methyl)phenoxy)ethyl)-4-hydroxybenzamide] | 3.265 ± 1.236 mmol/L

same assay, conditions: 10 mg kg^−1 d^−1 oral for 10 d, fasted 12 h, before sugar load

SMILES | Blood glucose levels 0 h
Cc1ccc(C(=O)NCCOc2ccc(CC3SC(=O)NC3=O)cc2)cc1 (stereo not drawn) [Compound 6e, N-(2-(4-((2,4-dioxothiazolidin-5-yl)methyl)phenoxy)ethyl)-4-methylbenzamide] | 3.312 ± 0.301 mmol/L
O=C1NC(=O)C(Cc2ccc(OCCNC(=O)c3ccc(O)cc3)cc2)S1 (stereo not drawn) [Compound 6i, N-(2-(4-((2,4-dioxothiazolidin-5-yl)methyl)phenoxy)ethyl)-4-hydroxybenzamide] | 3.218 ± 0.317 mmol/L

same assay, conditions: 10 mg kg^−1 d^−1 oral, 10 d

SMILES | Effect in glucose tolerance test (in words)
Cc1ccc(C(=O)NCCOc2ccc(CC3SC(=O)NC3=O)cc2)cc1 (stereo not drawn) [Compound 6e, N-(2-(4-((2,4-dioxothiazolidin-5-yl)methyl)phenoxy)ethyl)-4-methylbenzamide] | good resistance activation to glucose
O=C1NC(=O)C(Cc2ccc(OCCNC(=O)c3ccc(O)cc3)cc2)S1 (stereo not drawn) [Compound 6i, N-(2-(4-((2,4-dioxothiazolidin-5-yl)methyl)phenoxy)ethyl)-4-hydroxybenzamide] | good resistance activation to glucose

system: not listed separately; test: Acute toxicity test (LD50); format: in vivo; settings: oral administration; n ≥ 3

SMILES | LD50 ± SD
Cc1ccc(C(=O)NCCOc2ccc(CC3SC(=O)NC3=O)cc2)cc1 (stereo not drawn) [Compound 6e, N-(2-(4-((2,4-dioxothiazolidin-5-yl)methyl)phenoxy)ethyl)-4-methylbenzamide] | 2451.2 ± 1.24 mg/kg
O=C1NC(=O)C(Cc2ccc(OCCNC(=O)c3ccc(O)cc3)cc2)S1 (stereo not drawn) [Compound 6i, N-(2-(4-((2,4-dioxothiazolidin-5-yl)methyl)phenoxy)ethyl)-4-hydroxybenzamide] | 2268.9 ± 1.25 mg/kg

target: T1, PPARγ (Homo sapiens, UniProt P37231); test: In vitro activation of PPARγ (cells containing PPAR, EC50); format: cell-based; settings: n ≥ 8; 24 h; read-out: EC50 ± SD PPARγ
T1 construct: expressed in transfected cells
T1 sequence (P37231 1-505): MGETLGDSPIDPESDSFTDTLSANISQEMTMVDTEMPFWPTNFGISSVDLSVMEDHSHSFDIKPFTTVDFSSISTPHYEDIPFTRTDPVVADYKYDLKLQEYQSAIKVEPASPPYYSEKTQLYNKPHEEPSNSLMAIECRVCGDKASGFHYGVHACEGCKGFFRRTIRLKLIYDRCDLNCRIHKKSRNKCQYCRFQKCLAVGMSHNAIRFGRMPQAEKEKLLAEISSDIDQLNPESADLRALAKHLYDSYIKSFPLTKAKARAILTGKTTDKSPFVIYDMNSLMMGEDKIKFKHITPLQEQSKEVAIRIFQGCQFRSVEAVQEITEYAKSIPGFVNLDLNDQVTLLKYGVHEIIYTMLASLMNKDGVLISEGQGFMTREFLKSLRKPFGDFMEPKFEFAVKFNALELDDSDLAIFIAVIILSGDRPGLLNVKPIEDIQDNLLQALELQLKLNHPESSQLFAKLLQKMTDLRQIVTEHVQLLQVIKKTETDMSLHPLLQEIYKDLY
Method: According to the literature, the cells containing PPAR (α, β and γ) were obtained and transfected into 96-well plates the day before for cells culture. Transfection was performed according to the instructions of human PPAR enzyme-linked immunoassay. […] After 24 h, the drugs were added, and 20 μl of MTT was added to each well for another 6 h, and the cell liquid was collected by removing the culture medium, and 150 μl of DMSO was added to each hole. And the absorbance value (A) of each hole was measured under the wavelength of 460 nm.

SMILES | EC50
O=C1NC(=O)C(Cc2ccc(OCCNC(=O)c3ccc(O)cn3)cc2)S1 (stereo not drawn) [Compound 6k, N-(2-(4-((2,4-dioxothiazolidin-5-yl)methyl)phenoxy)ethyl)-5-hydroxypicolinamide] | 210 ± 110 nM
Cc1ccc(C(=O)NCCOc2ccc(CC3SC(=O)NC3=O)cc2)cc1 (stereo not drawn) [Compound 6e, N-(2-(4-((2,4-dioxothiazolidin-5-yl)methyl)phenoxy)ethyl)-4-methylbenzamide] | 30 ± 10 nM
O=C1NC(=O)C(Cc2ccc(OCCNC(=O)c3ccc(O)cc3)cc2)S1 (stereo not drawn) [Compound 6i, N-(2-(4-((2,4-dioxothiazolidin-5-yl)methyl)phenoxy)ethyl)-4-hydroxybenzamide] | 70 ± 20 nM

system: healthy mice; test: Insulin tolerance test (blood glucose under insulin load); format: in vivo; settings: 10 mg kg^−1 d^−1
Method: as §1

SMILES | Effect in insulin tolerance test (in words)
Cc1ccc(C(=O)NCCOc2ccc(CC3SC(=O)NC3=O)cc2)cc1 (stereo not drawn) [Compound 6e, N-(2-(4-((2,4-dioxothiazolidin-5-yl)methyl)phenoxy)ethyl)-4-methylbenzamide] | good resistance activation to insulin
O=C1NC(=O)C(Cc2ccc(OCCNC(=O)c3ccc(O)cc3)cc2)S1 (stereo not drawn) [Compound 6i, N-(2-(4-((2,4-dioxothiazolidin-5-yl)methyl)phenoxy)ethyl)-4-hydroxybenzamide] | good resistance activation to insulin

same assay, conditions: 10 mg kg^−1 d^−1 for 15 d, 1 h after s.c. insulin 0.2 μg kg^−1

SMILES | Blood glucose levels 1 h
Cc1ccc(C(=O)NCCOc2ccc(CC3SC(=O)NC3=O)cc2)cc1 (stereo not drawn) [Compound 6e, N-(2-(4-((2,4-dioxothiazolidin-5-yl)methyl)phenoxy)ethyl)-4-methylbenzamide] | 1.762 ± 0.453 mmol/L
O=C1NC(=O)C(Cc2ccc(OCCNC(=O)c3ccc(O)cc3)cc2)S1 (stereo not drawn) [Compound 6i, N-(2-(4-((2,4-dioxothiazolidin-5-yl)methyl)phenoxy)ethyl)-4-hydroxybenzamide] | 1.792 ± 0.541 mmol/L

same assay, conditions: 10 mg kg^−1 d^−1 for 15 d, 2 h after s.c. insulin 0.2 μg kg^−1

SMILES | Blood glucose levels 2 h
Cc1ccc(C(=O)NCCOc2ccc(CC3SC(=O)NC3=O)cc2)cc1 (stereo not drawn) [Compound 6e, N-(2-(4-((2,4-dioxothiazolidin-5-yl)methyl)phenoxy)ethyl)-4-methylbenzamide] | 2.463 ± 1.211 mmol/L
O=C1NC(=O)C(Cc2ccc(OCCNC(=O)c3ccc(O)cc3)cc2)S1 (stereo not drawn) [Compound 6i, N-(2-(4-((2,4-dioxothiazolidin-5-yl)methyl)phenoxy)ethyl)-4-hydroxybenzamide] | 2.501 ± 1.025 mmol/L

same assay, conditions: 10 mg kg^−1 d^−1 for 15 d, fasted 12 h, before insulin

SMILES | Blood glucose levels 0 h
Cc1ccc(C(=O)NCCOc2ccc(CC3SC(=O)NC3=O)cc2)cc1 (stereo not drawn) [Compound 6e, N-(2-(4-((2,4-dioxothiazolidin-5-yl)methyl)phenoxy)ethyl)-4-methylbenzamide] | 5.411 ± 1.002 mmol/L
O=C1NC(=O)C(Cc2ccc(OCCNC(=O)c3ccc(O)cc3)cc2)S1 (stereo not drawn) [Compound 6i, N-(2-(4-((2,4-dioxothiazolidin-5-yl)methyl)phenoxy)ethyl)-4-hydroxybenzamide] | 5.592 ± 1.134 mmol/L

system: HUVEC cells; test: Cell survival experiment (cytotoxicity); format: cell-based; settings: 10^−3–10^−2 mol L^−1
Method: as §1

SMILES | Cytotoxic effect (in words)
Cc1ccc(C(=O)NCCOc2ccc(CC3SC(=O)NC3=O)cc2)cc1 (stereo not drawn) [Compound 6e, N-(2-(4-((2,4-dioxothiazolidin-5-yl)methyl)phenoxy)ethyl)-4-methylbenzamide] | no obvious cytotoxic effect
O=C1NC(=O)C(Cc2ccc(OCCNC(=O)c3ccc(O)cc3)cc2)S1 (stereo not drawn) [Compound 6i, N-(2-(4-((2,4-dioxothiazolidin-5-yl)methyl)phenoxy)ethyl)-4-hydroxybenzamide] | no obvious cytotoxic effect

same assay, conditions: HUVEC cells, 10^−2 mol l^−1

SMILES | Cell survival rate
Cc1ccc(C(=O)NCCOc2ccc(CC3SC(=O)NC3=O)cc2)cc1 (stereo not drawn) [Compound 6e, N-(2-(4-((2,4-dioxothiazolidin-5-yl)methyl)phenoxy)ethyl)-4-methylbenzamide] | 94.3 ± 1.02%
O=C1NC(=O)C(Cc2ccc(OCCNC(=O)c3ccc(O)cc3)cc2)S1 (stereo not drawn) [Compound 6i, N-(2-(4-((2,4-dioxothiazolidin-5-yl)methyl)phenoxy)ethyl)-4-hydroxybenzamide] | 92.1 ± 1.43%

same assay, conditions: HUVEC cells, 10^−3 mol l^−1

SMILES | Cell survival rate
Cc1ccc(C(=O)NCCOc2ccc(CC3SC(=O)NC3=O)cc2)cc1 (stereo not drawn) [Compound 6e, N-(2-(4-((2,4-dioxothiazolidin-5-yl)methyl)phenoxy)ethyl)-4-methylbenzamide] | 99.1 ± 0.08%
O=C1NC(=O)C(Cc2ccc(OCCNC(=O)c3ccc(O)cc3)cc2)S1 (stereo not drawn) [Compound 6i, N-(2-(4-((2,4-dioxothiazolidin-5-yl)methyl)phenoxy)ethyl)-4-hydroxybenzamide] | 98.8 ± 0.29%

same assay, conditions: HUVEC cells, 10^−4 mol l^−1

SMILES | Cell survival rate
Cc1ccc(C(=O)NCCOc2ccc(CC3SC(=O)NC3=O)cc2)cc1 (stereo not drawn) [Compound 6e, N-(2-(4-((2,4-dioxothiazolidin-5-yl)methyl)phenoxy)ethyl)-4-methylbenzamide] | 100%
O=C1NC(=O)C(Cc2ccc(OCCNC(=O)c3ccc(O)cc3)cc2)S1 (stereo not drawn) [Compound 6i, N-(2-(4-((2,4-dioxothiazolidin-5-yl)methyl)phenoxy)ethyl)-4-hydroxybenzamide] | 99.9 ± 0.02%

same assay, conditions: HUVEC cells, 10^−5 mol l^−1

SMILES | Cell survival rate
Cc1ccc(C(=O)NCCOc2ccc(CC3SC(=O)NC3=O)cc2)cc1 (stereo not drawn) [Compound 6e, N-(2-(4-((2,4-dioxothiazolidin-5-yl)methyl)phenoxy)ethyl)-4-methylbenzamide] | 100%
O=C1NC(=O)C(Cc2ccc(OCCNC(=O)c3ccc(O)cc3)cc2)S1 (stereo not drawn) [Compound 6i, N-(2-(4-((2,4-dioxothiazolidin-5-yl)methyl)phenoxy)ethyl)-4-hydroxybenzamide] | 100%

same assay, conditions: HUVEC cells, 10^−6 mol l^−1

SMILES | Cell survival rate
Cc1ccc(C(=O)NCCOc2ccc(CC3SC(=O)NC3=O)cc2)cc1 (stereo not drawn) [Compound 6e, N-(2-(4-((2,4-dioxothiazolidin-5-yl)methyl)phenoxy)ethyl)-4-methylbenzamide] | 100%
O=C1NC(=O)C(Cc2ccc(OCCNC(=O)c3ccc(O)cc3)cc2)S1 (stereo not drawn) [Compound 6i, N-(2-(4-((2,4-dioxothiazolidin-5-yl)methyl)phenoxy)ethyl)-4-hydroxybenzamide] | 100%

system: not listed separately; test: Dissociation degree (pKa); format: physicochemical; settings: not given
Source text: (§2) Drug in vitro experiment was one of the basic contents to evaluate drugs activity, and it was a necessary approach to research drugs. Drugs’ efficacy was often affected by some physical and chemical properties of compounds, such as lipid–water partition coefficient (log p), and dissociation degree (pKa). […] In Table 1, we could find that target compounds were fat-soluble. The fat-soluble compounds were favourable for drugs absorption, and drugs were easy to enter the cells. […] The pKa will affect the absorption and delivery of the drugs, different environmental (acid and alkalinity) medicine may be different, sometimes exists in the form of ions, sometimes exists in the form of molecules. Usually in the form of ion drugs has no effect. Therefore, it was necessary to study the dissociation degree (pKa) of drugs to study the pharmacodynamics. […] After the physical and chemical properties were studied, the biological activity was studied. […] After that, the target compounds 6a, 6e, 6f, 6g and 6i had good biological activity and were preliminarily screened out for further study on PPARγ receptor agonist activity (Figure 5).

SMILES | pKa
O=C1NC(=O)C(Cc2ccc(OCCNC(=O)c3ccc(O)cn3)cc2)S1 (stereo not drawn) [Compound 6k, N-(2-(4-((2,4-dioxothiazolidin-5-yl)methyl)phenoxy)ethyl)-5-hydroxypicolinamide] | 8.66
Cc1ccc(C(=O)NCCOc2ccc(CC3SC(=O)NC3=O)cc2)cc1 (stereo not drawn) [Compound 6e, N-(2-(4-((2,4-dioxothiazolidin-5-yl)methyl)phenoxy)ethyl)-4-methylbenzamide] | 9.77
O=C1NC(=O)C(Cc2ccc(OCCNC(=O)c3ccc(O)cc3)cc2)S1 (stereo not drawn) [Compound 6i, N-(2-(4-((2,4-dioxothiazolidin-5-yl)methyl)phenoxy)ethyl)-4-hydroxybenzamide] | 9.03

system: not listed separately; test: Lipid–water partition coefficient (log p); format: physicochemical; settings: not given
Source text: as §2

SMILES | logP
O=C1NC(=O)C(Cc2ccc(OCCNC(=O)c3ccc(O)cn3)cc2)S1 (stereo not drawn) [Compound 6k, N-(2-(4-((2,4-dioxothiazolidin-5-yl)methyl)phenoxy)ethyl)-5-hydroxypicolinamide] | 2.32
Cc1ccc(C(=O)NCCOc2ccc(CC3SC(=O)NC3=O)cc2)cc1 (stereo not drawn) [Compound 6e, N-(2-(4-((2,4-dioxothiazolidin-5-yl)methyl)phenoxy)ethyl)-4-methylbenzamide] | 3.26
O=C1NC(=O)C(Cc2ccc(OCCNC(=O)c3ccc(O)cc3)cc2)S1 (stereo not drawn) [Compound 6i, N-(2-(4-((2,4-dioxothiazolidin-5-yl)methyl)phenoxy)ethyl)-4-hydroxybenzamide] | 2.8
